How the values were obtained:
[1] = Biodistribution studies; type: in vivo, female NIH Swiss mice; details: mice, over the 72 h experiment
Description: Biodistribution Studies. Biodistribution studies were conducted using a modified literature procedure. 7 Briefly, female NIH Swiss mice (6-8 wk old, n=6) were injected with each 89Zr-labeled complex (0.55 MBq (15 μCi)/mouse) via the tail vein, and sacrificed at 2, 4, 24, 48, 72 h post-injection. Organs and tissues of interest were excised, weighted, and counted on a Perkin Elmer 2480 Wizard® gamma counter (Waltham, MA). The percent injected dose per gram (%ID/g) and percent injected dose per organ (%ID/organ) were calculated by comparison to a weighed, counted standard for each group (Tables S9 – S12).
Statistical Methods. All of the data are presented as mean±SD or mean (95% Confidence Interval). For statistical classification a student’s t test (two-tailed, unpaired) was performed using GraphPad Prism (San Diego, CA). Any p<0.05 was considered significant.

[2] = In vitro metal competition study; type: physicochemical; details: PBS pH 7.4, 37 C
Description: In vitro Metal Competition study. To a solution of metal cations [iron (III) chloride, cobalt (II) chloride, zinc (II) chloride, copper (II) chloride, magnesium (II) chloride, gallium (III) nitrate, gadolinium (III) chloride] (1 mM, 200 µL), was added 89Zr-labeled complex (0.1 mM, 10 µL, 80 μCi, 2.96 MBq) in PBS, pH 7.4. The resulting solutions (n = 3) were incubated at 37 °C for 7 days in a thermomixer. Dissociation of 89Zr from 89Zr-complexes was monitored by radio-TLC at 2 h, 1 d, 4 d and 7 d time point. All studies were performed in triplicate.

[3] = In vitro serum stability (radio-ITLC); type: in vitro ADME; details: 37 C, after 7 days
Description: In vitro serum stability. In vitro serum stability was carried out by adding 10 µL of each 89Zr-labeled complex (70 μCi, 2.59 MBq) to 500 µL of human serum. The solutions (n=4) were incubated at 37 °C for 7 days and were analyzed daily for 1 week by radio -TLC using Varian ITLC-SA strips and 0.1 M EDTA (pH 5) as the mobile phase and gamma counting using an energy window of 500-1500 keV and standard protocols . Serum samples were also analyzed after 7 days by size exclusion chromatography (SEC) using a Superdex 200 10/300 GLTM column (GE Healthcare Life Sciences, Piscataway, NJ) and phosphate buffered saline (PBS) as eluent with a flow rate of 0.5 mL/min.
Figure S30. Radio-ITLC of 89Zr-DOTA solution in human serum at 37 °C after 0 h (a) and 7 days (b). […]

[4] = In vitro EDTA challenge study; type: physicochemical
Description: In vitro EDTA challenge study. In vitro EDTA challenge study was carried out by adding 10 µL of each 89Zr-labeled complex (70 μCi, 2.59 MBq) to 500 µL of EDTA (10 mM, 50 mM and 100 mM: pH 5 and pH 7) with a 1:100, 1:500, and 1:1000 ratio of ligand/EDTA. The solutions (n=4) were incubated at 37 °C for 7 days in a thermomixer. Samples were analyzed at 30 min, 1 h, 3 h, 6 h, 1 d, 3 d, 5 d and 7 d post administration to EDTA by radio-TLC using Varian ITLC-SA strips and 0.1 M EDTA (pH 5) as the mobile phase and gamma counting using an energy window of 500-1500 keV and standard protocols .

For `NC(=O)CN1CCN(CC(N)=O)CCN(CC(N)=O)CCN(CC(N)=O)CC1.[89Zr+4]` [89Zr-DOTAM], the “Radioactivity retention in liver and spleen tissues” value [1] was “retained elevated levels of radioactivity”, the “% Intact of 89Zr-complexes” value ([2]; Co2+, 2 h) was 92.6 ± 0.5% and the “% Intact of 89Zr-complexes” value ([2]; Co2+, 1 d) was 88.6 ± 0.3%. For the same compound, the “% Intact of 89Zr-complexes” value ([2]; Co2+, 4 d) was 85.8 ± 0.4%, the “% Intact of 89Zr-complexes” value ([2]; Co2+, 7 d) was 80.9 ± 1.0% and the “% Intact of 89Zr-complexes” value ([2]; Cu2+, 2 h) was 91.9 ± 0.1%. The “% Intact of 89Zr-complexes” value ([2]; Cu2+, 1 d) was 86.7 ± 0.7%, the “% Intact of 89Zr-complexes” value ([2]; Cu2+, 4 d) was 80.5 ± 0.8% and the “% Intact of 89Zr-complexes” value ([2]; Cu2+, 7 d) was 74.1 ± 1.2%. The “% Intact of 89Zr-complexes” value ([2]; Fe3+, 2 h) was 92.4 ± 0.5%, the “% Intact of 89Zr-complexes” value ([2]; Fe3+, 1 d) was 89.8 ± 0.2% and the “% Intact of 89Zr-complexes” value ([2]; Fe3+, 4 d) was 87.2 ± 0.8%. The “% Intact of 89Zr-complexes” value ([2]; Fe3+, 7 d) was 85.8 ± 0.8%, the “% Intact of 89Zr-complexes” value ([2]; Ga3+, 2 h) was 92.9 ± 0.7% and the “% Intact of 89Zr-complexes” value ([2]; Ga3+, 1 d) was 87.9 ± 0.7%. For the same compound, the “% Intact of 89Zr-complexes” value ([2]; Ga3+, 4 d) was 86.6 ± 2.3%, the “% Intact of 89Zr-complexes” value ([2]; Ga3+, 7 d) was 80.3 ± 0.4% and the “% Intact of 89Zr-complexes” value ([2]; Gd3+, 2 h) was 93.9 ± 0.3%. The “% Intact of 89Zr-complexes” value ([2]; Gd3+, 1 d) was 90.6 ± 0.3%, the “% Intact of 89Zr-complexes” value ([2]; Gd3+, 4 d) was 88.8 ± 0.6% and the “% Intact of 89Zr-complexes” value ([2]; Gd3+, 7 d) was 86.3 ± 0.1%. For the same compound, the “% Intact of 89Zr-complexes” value ([2]; Mg2+, 2 h) was 93.6 ± 1.0%, the “% Intact of 89Zr-complexes” value ([2]; Mg2+, 1 d) was 90.5 ± 0.5% and the “% Intact of 89Zr-complexes” value ([2]; Mg2+, 4 d) was 87.4 ± 0.9%. For the same compound, the “% Intact of 89Zr-complexes” value ([2]; Mg2+, 7 d) was 93.1 ± 0.8%, the “% Intact of 89Zr-complexes” value ([2]; Zn2+, 2 h) was 94.1 ± 0.5% and the “% Intact of 89Zr-complexes” value ([2]; Zn2+, 1 d) was 89.4 ± 1.9%. For the same compound, the “% Intact of 89Zr-complexes” value ([2]; Zn2+, 4 d) was 71.9 ± 1.7%, the “% Intact of 89Zr-complexes” value ([2]; Zn2+, 7 d) was 57.0 ± 1.8% and the “Radio-ITLC peak of complex in human serum” value [3] was 99.2%. For the same compound, the “% Intact of 89Zr-complexes” value ([4]; EDTA 100-fold, pH 5.0, 37 C, 1 h) was 97.7 ± 0.2%, the “% Intact of 89Zr-complexes” value ([4]; EDTA 100-fold, pH 5.0, 37 C, 1 d) was 84.4 ± 0.9% and the “% Intact of 89Zr-complexes” value ([4]; EDTA 100-fold, pH 5.0, 37 C, 3 d) was 67.6 ± 0.9%. For the same compound, the “% Intact of 89Zr-complexes” value ([4]; EDTA 100-fold, pH 5.0, 37 C, 5 d) was 49.6 ± 0.6%, the “% Intact of 89Zr-complexes” value ([4]; EDTA 100-fold, pH 5.0, 37 C, 7 d) was 42.3 ± 1.2% and the “% Intact of 89Zr-complexes” value ([4]; EDTA 100-fold, pH 7.0, 37 C, 1 h) was 99.0 ± 0.2%. The “% Intact of 89Zr-complexes” value ([4]; EDTA 100-fold, pH 7.0, 37 C, 1 d) was 90.9 ± 0.8%, the “% Intact of 89Zr-complexes” value ([4]; EDTA 100-fold, pH 7.0, 37 C, 3 d) was 86.1 ± 1.1% and the “% Intact of 89Zr-complexes” value ([4]; EDTA 100-fold, pH 7.0, 37 C, 5 d) was 75.7 ± 0.8%. For the same compound, the “% Intact of 89Zr-complexes” value ([4]; EDTA 100-fold, pH 7.0, 37 C, 7 d) was 72.1 ± 2.0%, the “% Intact of 89Zr-complexes” value ([4]; EDTA 500-fold, pH 5.0, 37 C, 1 h) was 97.5 ± 0.6% and the “% Intact of 89Zr-complexes” value ([4]; EDTA 500-fold, pH 5.0, 37 C, 1 d) was 80.0 ± 1.2%. The “% Intact of 89Zr-complexes” value ([4]; EDTA 500-fold, pH 5.0, 37 C, 3 d) was 47.0 ± 0.4%, the “% Intact of 89Zr-complexes” value ([4]; EDTA 500-fold, pH 5.0, 37 C, 5 d) was 22.8 ± 1.8% and the “% Intact of 89Zr-complexes” value ([4]; EDTA 500-fold, pH 5.0, 37 C, 7 d) was 12.2 ± 1.5%. For the same compound, the “% Intact of 89Zr-complexes” value ([4]; EDTA 500-fold, pH 7.0, 37 C, 1 h) was 98.5 ± 0.2%, the “% Intact of 89Zr-complexes” value ([4]; EDTA 500-fold, pH 7.0, 37 C, 1 d) was 90.8 ± 0.9% and the “% Intact of 89Zr-complexes” value ([4]; EDTA 500-fold, pH 7.0, 37 C, 3 d) was 77.5 ± 1.4%. For the same compound, the “% Intact of 89Zr-complexes” value ([4]; EDTA 500-fold, pH 7.0, 37 C, 5 d) was 66.6 ± 0.5%, the “% Intact of 89Zr-complexes” value ([4]; EDTA 500-fold, pH 7.0, 37 C, 7 d) was 58.1 ± 1.4% and the “% Intact of 89Zr-complexes” value ([4]; EDTA 1000-fold, pH 5.0, 37 C, 1 h) was 96.5 ± 0.2%. The “% Intact of 89Zr-complexes” value ([4]; EDTA 1000-fold, pH 5.0, 37 C, 1 d) was 77.0 ± 1.3%, the “% Intact of 89Zr-complexes” value ([4]; EDTA 1000-fold, pH 5.0, 37 C, 3 d) was 38.3 ± 1.5% and the “% Intact of 89Zr-complexes” value ([4]; EDTA 1000-fold, pH 5.0, 37 C, 5 d) was 13.4 ± 1.6%. The “% Intact of 89Zr-complexes” value ([4]; EDTA 1000-fold, pH 5.0, 37 C, 7 d) was 5.7 ± 1.0%, the “% Intact of 89Zr-complexes” value ([4]; EDTA 1000-fold, pH 7.0, 37 C, 1 h) was 98.3 ± 0.1% and the “% Intact of 89Zr-complexes” value ([4]; EDTA 1000-fold, pH 7.0, 37 C, 1 d) was 88.6 ± 0.4%. The “% Intact of 89Zr-complexes” value ([4]; EDTA 1000-fold, pH 7.0, 37 C, 3 d) was 69.9 ± 1.8%, the “% Intact of 89Zr-complexes” value ([4]; EDTA 1000-fold, pH 7.0, 37 C, 5 d) was 58.2 ± 1.3% and the “% Intact of 89Zr-complexes” value ([4]; EDTA 1000-fold, pH 7.0, 37 C, 7 d) was 47.4 ± 0.9%.
